How the values were obtained:
[1] = test system: subjects with manifest HD, chorea; test: ARC-HD open-label, single-arm study (Rollover and Switch cohorts); assay type: in vivo, human
Excerpt: In a second clinical trial, a method for converting patients with adequate control of chorea with tetrabenazine to deutetrabenazine treatment was implemented. Alternatives for Reducing Chorea in Huntington Disease (ARC-HD) was an open-label, single-arm study in which subjects with manifest HD who were receiving FDA-approved doses of tetrabenazine for the treatment of chorea or had successfully completed First-HD were invited to participate. The study thus comprised two cohorts. […] Other key inclusion criteria for the study included: diagnosed with manifest HD, as indicated by characteristic motor examination features; a documented expanded cytosine adenine guanine (CAG) repeat (≥37) and Total Functional Capacity (TFC) score ≥5 at or before Screening; able to ambulate without assistance for at least 20 yards ([…] devices such as walker or cane permitted); and subject has a reliable caregiver who interacts with the subject on a daily basis, oversees study drug administration, assures attendance at study visits, and participates in evaluations, as required. Key exclusion criteria included serious untreated or undertreated psychiatric illness (e.g., depression) at Screening or Baseline; concomitant dopamine receptor antagonists, dopamine agonists, levodopa, reserpine, N-methyl-D-aspartate receptor antagonists, or monoamine oxidase inhibitors within 30 days of Screening or Baseline; and score ≥11 on the depression subscale of the Hospital Anxiety and Depression Scale (HADS), a score of ≥11 on the Swallowing Disturbance Questionnaire (SDQ), or a Unified Parkinson's Disease Rating Scale (UPDRS) dysarthria score of ≥3 at Screening or Baseline. The guidance for investigators on conversion of subjects from stable doses of tetrabenazine to deutetrabenazine in the ARC-HD Switch study was designed to minimize the risk that dose conversion would result in either loss of efficacy or increased adverse events. The conversion method applied was based on modeling and simulation of Phase 1 pharmacokinetic data for deutetrabenazine and tetrabenazine. The objective of the pharmacokinetic analysis was to identify an initial dosing regimen of deutetrabenazine predicted to provide exposure at steady state of the active α and β metabolites that was less than or equal to the predicted AUC at steady state of the active alpha and beta metabolites of tetrabenazine, but with a lower Cmax. Subjects in the Switch cohort completed a full screening evaluation. […] Subjects received existing tetrabenazine regimen through midnight of Day 0 and switched to their assigned deutetrabenazine regimen the next morning (Day 1 of the study). […] The investigator, in consultation with the subject and caregiver, determined when an adequate level of chorea control had been achieved. If a subject experienced a “clinically significant” adverse event attributable to deutetrabenazine, the investigator determined if a dose reduction or suspension was necessary. […] The deutetrabenazine dose for these subjects was titrated from a starting dose of 6 mg per day to a dose that controlled chorea and was well tolerated. For both cohorts, oral tablets at strengths of 6 mg, 9 mg, and 12 mg were used. Doses of 12 mg and higher were administered in two divided doses approximately 10 hours apart. All study treatment regimens were administered orally with meals. The maximum total daily dose of deutetrabenazine was set at 72 mg per day, unless the subject was receiving a strong CYP2D6 inhibitor (e.g., paroxetine), in which case the maximum total daily dose was 36 mg. Subjects attended regular clinic visits to evaluate safety and establish an optimal dose. The investigator, in consultation with the subject and caregiver, determined when an adequate level of chorea control was achieved; the dose of DTBZ could be increased on a weekly basis until there was adequate control of chorea, the subject experienced a protocol defined clinically significant adverse event, or the maximal allowable dose was reached. […]

[2] = test system: subjects with chorea associated with HD; conditions: in vivo
Experimental: First-HD was a randomized, double-blind, placebo-controlled, parallel-group study designed to evaluate the efficacy, safety, and tolerability of deutetrabenazine in subjects with chorea associated with HD. This trial was conducted in the United States and Canada, in collaboration with the Huntington Study Group.
Subjects in First-HD were treated with deutetrabenazine or placebo, starting at 6 mg once per day and titrating weekly to doses of up to 24 mg twice per day (48 mg total maximum daily dose). A total of 90 subjects (45 in each group) were enrolled for evaluation over 13 weeks. Subjects were individually titrated to an optimal dose over up to eight weeks, received maintenance therapy at the optimal dose for four weeks, and were taken off study medication in the final week of the trial.
The primary efficacy endpoint for the study was the change from baseline to maintenance therapy (average of Week 9 and Week 12 values) in the maximal chorea score of the UHDRS. The total maximal score, or TMC, is a clinician-based, quantitative assessment of chorea in seven body regions: face, mouth/tongue, trunk, and the four extremities, with higher scores representing more severe chorea.
The total motor score (TMS) of the UHDRS was prespecified as an additional efficacy endpoint in First-HD. The TMS assesses all the motor features of HD, including items addressing characteristic motor abnormalities other than chorea, such as dystonia, gait, parkinsonism, and postural instability.
The clinical relevance of the change in the TMC score was assessed with four prespecified secondary endpoints that assessed changes from baseline to end of treatment (Week 12). These secondary endpoints were tested in a hierarchical manner: • 1. Treatment success based on patient global impression of change (PGIC); • 2. Treatment success based on clinical global impression of change (CGIC); • 3. Physical Functioning Scale of the SF-36; and • 4. Balance, as assessed by the Berg Balance Test (BBT).
The PGIC and CGIC are single-item questionnaires that ask the subject and investigator, respectively, to assess a subject's overall HD symptoms at specific visits after initiating therapy. Both assessments use a 7-point Likert Scale, with responses ranging from Very Much Worse (−3) to Very Much Improved (+3) to assess overall response to therapy.
Adverse events (AE) and their potential association with treatment were also monitored. Categories of AEs of particular focus included those known to be associated with tetrabenazine use: • Psychiatric disorders: insomnia, depression/agitated depression, abnormal dreams, agitation, anxiety, suicidal ideation, compulsions, impulsive behavior, and sleep disorders; • Nervous system disorders: somnolence, dizziness, akathisia/restlessness, cognitive disorders, drooling, dyskinesia, migraine, headache, loss of consciousness, and syncope (fainting); • General disorders: irritability, fatigue, gait disturbance, chest pain, and hangover; and • Gastrointestinal disorders: diarrhea, dry mouth, constipation, nausea, upper abdominal pain, dyspepsia, frequent bowel movements, gastrointestinal pain, vomiting, dysphagia, flatulence, and salivary hypersecretion.
In addition to AE reporting, rating scales were used to monitor for potential subclinical toxicity due to excessive monoamine depletion. […] These scales applied in First-HD included the Hospital Anxiety and Depression Scale (HADS), the Columbia Suicide Severity Rating Scale (C-SSRS), the Swallowing Disturbance Questionnaire (SDQ), the Unified Parkinson's Disease Rating Scale (dysarthria item) (UPDRS [dysarthria]), the Barnes Akathisia Rating Scale (BARS), and the Epworth Sleepiness Scale (ESS). In addition, the UHDRS, which includes cognitive, behavioral, and functional measures, was performed at key visits.

`[2H]C([2H])([2H])Oc1cc2c(cc1OC([2H])([2H])[2H])C1CC(=O)C(CC(C)C)CN1CC2` (stereo not drawn) [deutetrabenazine, (RR, SS)-1,3,4,6,7,11b-hexahydro-9,10-di(methoxy-d3)-3-(2-methylpropyl)-2H-benzo[a]quinolizin-2-one] was tested, and the “subjects who experienced AEs” value ([1]; Rollover Cohort) was 39 (52.0%) n (%), the “subjects who experienced serious AEs” value ([1]; Rollover Cohort) was “Three” and the “subjects with an AE that led to a dose reduction or dose suspension” value ([1]; Rollover Cohort) was “Five”. The “TEAE Anxiety” value ([1]; Rollover Cohort (N = 75)) was 3 (4.0) n (%), the “TEAE Constipation” value ([1]; Rollover Cohort (N = 75)) was 3 (4.0) n (%) and the “TEAE Depression” value ([1]; Rollover Cohort (N = 75)) was 8 (10.7) n (%). The “TEAE Diarrhoea” value ([1]; Rollover Cohort (N = 75)) was 4 (5.3) n (%), the “TEAE Disorientation” value ([1]; Rollover Cohort (N = 75)) was 0 n (%) and the “TEAE Dry mouth” value ([1]; Rollover Cohort (N = 75)) was 3 (4.0) n (%). The “TEAE Fall” value ([1]; Rollover Cohort (N = 75)) was 10 (13.3) n (%), the “TEAE Fatigue” value ([1]; Rollover Cohort (N = 75)) was 3 (4.0) n (%) and the “TEAE Insomnia” value ([1]; Rollover Cohort (N = 75)) was 6 (8.0) n (%). The “TEAE Irritability” value ([1]; Rollover Cohort (N = 75)) was 3 (4.0) n (%), the “TEAE Nasopharyngitis” value ([1]; Rollover Cohort (N = 75)) was 2 (2.7) n (%) and the “TEAE Sleep disorder” value ([1]; Rollover Cohort (N = 75)) was 3 (4.0) n (%). For the same compound, the “TEAE Somnolence” value ([1]; Rollover Cohort (N = 75)) was 6 (8.0) n (%), the “TEAE Vomiting” value ([1]; Rollover Cohort (N = 75)) was 3 (4.0) n (%) and the “subjects who experienced AEs” value ([1]; Rollover Cohort, Day 1 through Week 8) was 45.3%. For the same compound, the “TMC mean (SD) decrease from baseline” value ([1]; Rollover Cohort, Week 2) was 1.9 (3.0) units, the “Total Maximal Chorea Score, Mean (SD) Change from Baseline” value ([1]; Rollover Cohort, Week 2) was −1.9 (2.95) and the “Total Maximal Chorea Score, Mean (SD) Score” value ([1]; Rollover Cohort, Week 2) was 10.1 (3.41). For the same compound, the “Total Motor Score, Mean (SD) Change from Baseline” value ([1]; Rollover Cohort, Week 2) was −3.9 (6.67), the “Total Motor Score, Mean (SD) Score” value ([1]; Rollover Cohort, Week 2) was 32.4 (15.23) and the “mean decrease in TMS from baseline” value ([1]; Rollover Cohort, Week 2) was 3.9 units. For the same compound, the “Total Maximal Chorea Score, Mean (SD) Change from Baseline” value ([1]; Rollover Cohort, Week 4) was −2.5 (3.21), the “Total Maximal Chorea Score, Mean (SD) Score” value ([1]; Rollover Cohort, Week 4) was 9.8 (3.69) and the “Total Motor Score, Mean (SD) Change from Baseline” value ([1]; Rollover Cohort, Week 4) was −5.9 (7.88). For the same compound, the “Total Motor Score, Mean (SD) Score” value ([1]; Rollover Cohort, Week 4) was 32.1 (16.84), the “Total Maximal Chorea Score, Mean (SD) Change from Baseline” value ([1]; Rollover Cohort, Week 8) was −4.5 (3.34) and the “Total Maximal Chorea Score, Mean (SD) Score” value ([1]; Rollover Cohort, Week 8) was 7.9 (3.91). The “Total Motor Score, Mean (SD) Change from Baseline” value ([1]; Rollover Cohort, Week 8) was −8.3 (8.58), the “Total Motor Score, Mean (SD) Score” value ([1]; Rollover Cohort, Week 8) was 31.0 (18.07) and the “subjects who experienced AEs” value ([1]; Rollover Cohort, Week 8 through the visit cut-off date) was 43.2%. The “TMC mean (SD) decrease from baseline” value ([1]; Rollover Cohort, Week 15) was 4.5 (5.0) units, the “Total Maximal Chorea Score, Mean (SD) Score” value ([1]; Rollover Cohort, Week 15) was 7.9 (4.05) and the “Total Motor Score, Mean (SD) Change from Baseline” value ([1]; Rollover Cohort, Week 15) was −8.0 (8.41). The “Total Motor Score, Mean (SD) Score” value ([1]; Rollover Cohort, Week 15) was 30.5 (17.70), the “mean decrease in TMS from baseline” value ([1]; Rollover Cohort, Week 15) was 8.0 units and the “Total Motor Score, Mean (SD) Change from Baseline” value ([1]; Rollover Cohort, Week 15, listed as DTBZ) was −8.0. The “subjects with AEs assessed as mild or moderate in intensity” value ([1]; Rollover Cohort, of the 39 subjects with AEs) was 36 (92.3%) n (%), the tolerability ([1]; Rollover and Switch Cohorts) was “generally well tolerated” and the “subjects who experienced at least one AE” value ([1]; Switch Cohort) was 21 (56.8%) n (%). For the same compound, the “subjects who experienced serious AEs” value ([1]; Switch Cohort) was “Two”, the “subjects with an AE that led to a dose reduction or dose suspension” value ([1]; Switch Cohort) was “four” and the “withdrawal from the study due to an AE” value ([1]; Switch Cohort) was “no subjects withdrew”. The “TEAE Anxiety” value ([1]; Switch Cohort (N = 37)) was 3 (8.1) n (%), the “TEAE Constipation” value ([1]; Switch Cohort (N = 37)) was 2 (5.4) n (%) and the “TEAE Diarrhoea” value ([1]; Switch Cohort (N = 37)) was 2 (5.4) n (%). The “TEAE Disorientation” value ([1]; Switch Cohort (N = 37)) was 2 (5.4) n (%), the “TEAE Dry mouth” value ([1]; Switch Cohort (N = 37)) was 2 (5.4) n (%) and the “TEAE Fall” value ([1]; Switch Cohort (N = 37)) was 3 (8.1) n (%). The “TEAE Fatigue” value ([1]; Switch Cohort (N = 37)) was 1 (2.7) n (%), the “TEAE Insomnia” value ([1]; Switch Cohort (N = 37)) was 1 (2.7) n (%) and the “TEAE Irritability” value ([1]; Switch Cohort (N = 37)) was 2 (5.4) n (%). The “TEAE Nasopharyngitis” value ([1]; Switch Cohort (N = 37)) was 2 (5.4) n (%), the “TEAE Sleep disorder” value ([1]; Switch Cohort (N = 37)) was 0 n (%) and the “TEAE Somnolence” value ([1]; Switch Cohort (N = 37)) was 9 (24.3) n (%). For the same compound, the “TEAE Vomiting” value ([1]; Switch Cohort (N = 37)) was 1 (2.7) n (%), the “Total Maximal Chorea Score, Mean (SD) Score” value ([1]; Switch Cohort, Week 1) was 11.76 (5.11) and the “Total Motor Score, Mean (SD) Change from Baseline” value ([1]; Switch Cohort, Week 1) was −2.14 (5.414). The “Total Motor Score, Mean (SD) Score” value ([1]; Switch Cohort, Week 1) was 36.35 (18.043), the “Total Maximal Chorea Score, Mean (SD) Score” value ([1]; Switch Cohort, Week 4) was 11.86 (5.23) and the “Total Motor Score, Mean (SD) Change from Baseline” value ([1]; Switch Cohort, Week 4) was −1.85 (8.419). The “Total Motor Score, Mean (SD) Score” value ([1]; Switch Cohort, Week 4) was 37.14 (19.516), the “Total Maximal Chorea Score, Mean (SD) Change from Baseline” value ([1]; Switch Cohort, Week 8) was −1.9 and the “Total Maximal Chorea Score, Mean (SD) Score” value ([1]; Switch Cohort, Week 8) was 10.10 (5.56). For the same compound, the “Total Motor Score, Mean (SD) Score” value ([1]; Switch Cohort, Week 8) was 34.58 (18.268), the “Total Motor Score, Mean (SD) Change from Baseline” value ([1]; Switch Cohort, Week 8, listed as DTBZ) was −3.7 and the “Total Maximal Chorea Score, Mean (SD) Score” value ([1]; Switch Cohort, Week 15) was 10.87 (5.99). The “Total Motor Score, Mean (SD) Change from Baseline” value ([1]; Switch Cohort, Week 15) was −1.93 (10.910), the “Total Motor Score, Mean (SD) Score” value ([1]; Switch Cohort, Week 15) was 35.00 (22.984) and the “adverse events of chorea or worsening chorea” value ([1]; Switch Cohort, including first week after conversion from tetrabenazine) was “no adverse events of chorea or worsening chorea”. The “subjects with AEs assessed as mild to moderate in intensity” value ([1]; Switch Cohort, of the 21 subjects with AEs) was 20 (95.2%) n (%), the “mean change from baseline in swallowing disturbance (questionnaire)” value ([1]; patients switched from tetrabenazine to deutetrabenazine (FIG. 7)) was “trend toward improvement in swallowing” and the “overall analysis of the safety scales (UHDRS, SDQ, UPDRS dysarthria, BARS, HADS, ESS, C-SSRS, MoCA)” value ([1]; through Week 28) was “no increased risk”. The “deaths in the study” value [2] was “no deaths”.

From patent US12016858B2, “Methods for the treatment of abnormal involuntary movement disorders” (AUSPEX PHARMACEUTICALS, INC., priority 2015, dated 2024)
